Measurements reported in ChEMBL document CHEMBL5634185, “Drymariamides A-J, Antiadipogenic Cyclopeptides Incorporating Noncanonical Amino Acids from Drymaria cordata” (J Nat Prod, 2024).
pEC50: −log10 of the molar value. Calls of active or inactive are those of the source. The rule behind the calls is not given here. Starred links: 1 amine or outer side, 2 acyl side, 3 side chain; linkers in the order of their positions; H or OH if unused. Non-standard residues stand in square brackets, D forms with d. Residues, ends and D or L forms follow the SMILES beside them. X1 = C[C@@]12Nc3ccccc3[C@]1(O)C[C@@H](C(=O)[*:2])N2[*:1]; Kyn = Nc1ccccc1C(=O)C[C@H](N)C(=O)O

Experiments:
3T3-L1 [1] = experiment: Anti-adipogenic activity against mouse 3T3-L1 cells assessed as decrease in triglyceride level at 1 to 100 uM by Oil Red O staining based analysis; type: functional, cell-based; settings: dose 1-100 µM
3T3-L1 [2] = experiment: Cytotoxicity against mouse 3T3-L1 cells assessed as cell viability incubated for 48 hrs by MTT assay; type: toxicity, cell-based; settings: 3t3-l1, 48 h
3T3-L1 [3] = experiment: Anti-adipogenic activity against mouse 3T3-L1 cells assessed as decrease in triglyceride level by Oil Red O staining based analysis; type: functional, cell-based

Row | SMILES | Activity (3T3-L1 [1]) | Activity (3T3-L1 [2]) | pEC50 (3T3-L1 [3])
1 | C[C@@]12Nc3ccccc3[C@]1(O)C[C@H]1C(=O)N3CCC[C@H]3C(=O)NCC(=O)N[C@@H](Cc3ccccc3)C(=O)N3CCC[C@H]3C(=O)N[C@@H](Cc3ccc(O)cc3)C(=O)N12 (cyclo(FPY[X1]PG)) | Active | Non-Toxic | 
2 | CC(C)C[C@@H]1NC(=O)[C@@H]2CCCN2C(=O)[C@H](Cc2ccccc2)NC(=O)[C@@H]2CCCN2C(=O)[C@H](C)NC(=O)[C@H](Cc2ccc(O)cc2)NC(=O)[C@@H]2CCCN2C(=O)[C@H](Cc2ccc(O)cc2)NC1=O (cyclo(APFPLYPY)) | Active | Non-Toxic | 
3 | CC(C)C[C@@H]1NC(=O)[C@H](Cc2ccc(O)cc2)NC(=O)[C@@H]2CCCN2C(=O)[C@H](Cc2ccccc2)NC(=O)CNC(=O)[C@@H]2CCCN2C1=O (cyclo(FPYLPG)) | Active | Non-Toxic | 5.93
4 | Nc1ccccc1C(=O)C[C@@H]1NC(=O)[C@H](Cc2ccc(O)cc2)NC(=O)[C@@H]2CCCN2C(=O)[C@H](Cc2ccccc2)NC(=O)CNC(=O)[C@@H]2CCCN2C1=O (cyclo(FPY[Kyn]PG)) | Active | Non-Toxic | 
5 | CC(C)C[C@@H]1NC(=O)[C@@H]2CCCN2C(=O)[C@H](CO)NC(=O)CNC(=O)[C@@H]2C[C@@]3(O)c4ccccc4N[C@@]3(C)N2C(=O)[C@H](CC(C)C)NC(=O)[C@H](CO)NC(=O)[C@@H]2CCCN2C1=O (cyclo(GSPLPSL[X1])) | Active | Non-Toxic | 
6 | CC[C@H](C)[C@@H]1NC(=O)[C@H](Cc2c[nH]c3ccccc23)NC(=O)[C@@H]2CCCN2C(=O)CNC(=O)[C@H](Cc2ccc(O)cc2)NC(=O)CNC(=O)[C@H](C(C)C)NC(=O)[C@H](C)NC1=O (cyclo(AVGYGPWI)) | Active | Non-Toxic | 
7 | CC(C)C[C@@H]1NC(=O)[C@H](CO)NC(=O)[C@@H]2CCCN2C(=O)[C@H](CC(C)C)NC(=O)[C@@H]2CCCN2C(=O)[C@H](CO)NC(=O)CNC(=O)[C@H](Cc2c[nH]c3ccccc23)NC1=O (cyclo(GSPLPSLW)) | Active | Non-Toxic | 
8 | O=C1CNC(=O)[C@@H]2CCCN2C(=O)[C@H](Cc2c[nH]c3ccccc23)NC(=O)[C@H](Cc2ccc(O)cc2)NC(=O)[C@@H]2CCCN2C(=O)CN1 (cyclo(GGPYWP)) | Active | Non-Toxic | 
9 | O=C1CNC(=O)[C@@H]2CCCN2C(=O)[C@H](Cc2c[nH]c3ccccc23)NC(=O)[C@H](Cc2ccc(O)cc2)NC(=O)[C@@H]2CCCN2C(=O)[C@H](Cc2ccccc2)N1 (cyclo(FPYWPG)) | Active | Non-Toxic | 
10 | CC(C)C[C@@H]1NC(=O)[C@@H]2CCCN2C(=O)[C@H](Cc2ccccc2)NC(=O)[C@@H]2CCCN2C(=O)[C@H](C)NC(=O)[C@@H]2CCCN2C(=O)[C@H](Cc2ccc(O)cc2)NC1=O (cyclo(APFPLYP)) | Active | Non-Toxic | 
